Measured values taken from patent publication US10246453B2, “Benzenesulfonamide compounds and their use as therapeutic agents” (Xenon Pharmaceuticals Inc., priority 2016, dated 2019).
Structures can show the parent of a compound that is named as a salt.

Key:
NaV1.6 = NaV1.6 (Homo sapiens (Human), UniProt Q9UQD0); experiment: Sodium Influx Assay (Flux), NaV1.6; settings: read-out: Flux NaV1.6 IC50; Trex HEK293 cells, ANG2 dye; arithmetic mean
NaV1.1 = NaV1.1 (Homo sapiens (Human), UniProt P35498); experiment: Sodium Influx Assay (Flux), NaV1.1; type: cell-based; settings: Trex HEK293 cells, ANG2 dye; arithmetic mean
NaV1.5 = NaV1.5 (Homo sapiens (Human), UniProt Q14524); experiment: Sodium Influx Assay (Flux), NaV1.5; settings: read-out: Flux NaV1.5 IC50; Trex HEK293 cells, ANG2 dye; arithmetic mean
NaV1.5, sequence (Q14524 other isoform, or with tags, fused parts or gaps): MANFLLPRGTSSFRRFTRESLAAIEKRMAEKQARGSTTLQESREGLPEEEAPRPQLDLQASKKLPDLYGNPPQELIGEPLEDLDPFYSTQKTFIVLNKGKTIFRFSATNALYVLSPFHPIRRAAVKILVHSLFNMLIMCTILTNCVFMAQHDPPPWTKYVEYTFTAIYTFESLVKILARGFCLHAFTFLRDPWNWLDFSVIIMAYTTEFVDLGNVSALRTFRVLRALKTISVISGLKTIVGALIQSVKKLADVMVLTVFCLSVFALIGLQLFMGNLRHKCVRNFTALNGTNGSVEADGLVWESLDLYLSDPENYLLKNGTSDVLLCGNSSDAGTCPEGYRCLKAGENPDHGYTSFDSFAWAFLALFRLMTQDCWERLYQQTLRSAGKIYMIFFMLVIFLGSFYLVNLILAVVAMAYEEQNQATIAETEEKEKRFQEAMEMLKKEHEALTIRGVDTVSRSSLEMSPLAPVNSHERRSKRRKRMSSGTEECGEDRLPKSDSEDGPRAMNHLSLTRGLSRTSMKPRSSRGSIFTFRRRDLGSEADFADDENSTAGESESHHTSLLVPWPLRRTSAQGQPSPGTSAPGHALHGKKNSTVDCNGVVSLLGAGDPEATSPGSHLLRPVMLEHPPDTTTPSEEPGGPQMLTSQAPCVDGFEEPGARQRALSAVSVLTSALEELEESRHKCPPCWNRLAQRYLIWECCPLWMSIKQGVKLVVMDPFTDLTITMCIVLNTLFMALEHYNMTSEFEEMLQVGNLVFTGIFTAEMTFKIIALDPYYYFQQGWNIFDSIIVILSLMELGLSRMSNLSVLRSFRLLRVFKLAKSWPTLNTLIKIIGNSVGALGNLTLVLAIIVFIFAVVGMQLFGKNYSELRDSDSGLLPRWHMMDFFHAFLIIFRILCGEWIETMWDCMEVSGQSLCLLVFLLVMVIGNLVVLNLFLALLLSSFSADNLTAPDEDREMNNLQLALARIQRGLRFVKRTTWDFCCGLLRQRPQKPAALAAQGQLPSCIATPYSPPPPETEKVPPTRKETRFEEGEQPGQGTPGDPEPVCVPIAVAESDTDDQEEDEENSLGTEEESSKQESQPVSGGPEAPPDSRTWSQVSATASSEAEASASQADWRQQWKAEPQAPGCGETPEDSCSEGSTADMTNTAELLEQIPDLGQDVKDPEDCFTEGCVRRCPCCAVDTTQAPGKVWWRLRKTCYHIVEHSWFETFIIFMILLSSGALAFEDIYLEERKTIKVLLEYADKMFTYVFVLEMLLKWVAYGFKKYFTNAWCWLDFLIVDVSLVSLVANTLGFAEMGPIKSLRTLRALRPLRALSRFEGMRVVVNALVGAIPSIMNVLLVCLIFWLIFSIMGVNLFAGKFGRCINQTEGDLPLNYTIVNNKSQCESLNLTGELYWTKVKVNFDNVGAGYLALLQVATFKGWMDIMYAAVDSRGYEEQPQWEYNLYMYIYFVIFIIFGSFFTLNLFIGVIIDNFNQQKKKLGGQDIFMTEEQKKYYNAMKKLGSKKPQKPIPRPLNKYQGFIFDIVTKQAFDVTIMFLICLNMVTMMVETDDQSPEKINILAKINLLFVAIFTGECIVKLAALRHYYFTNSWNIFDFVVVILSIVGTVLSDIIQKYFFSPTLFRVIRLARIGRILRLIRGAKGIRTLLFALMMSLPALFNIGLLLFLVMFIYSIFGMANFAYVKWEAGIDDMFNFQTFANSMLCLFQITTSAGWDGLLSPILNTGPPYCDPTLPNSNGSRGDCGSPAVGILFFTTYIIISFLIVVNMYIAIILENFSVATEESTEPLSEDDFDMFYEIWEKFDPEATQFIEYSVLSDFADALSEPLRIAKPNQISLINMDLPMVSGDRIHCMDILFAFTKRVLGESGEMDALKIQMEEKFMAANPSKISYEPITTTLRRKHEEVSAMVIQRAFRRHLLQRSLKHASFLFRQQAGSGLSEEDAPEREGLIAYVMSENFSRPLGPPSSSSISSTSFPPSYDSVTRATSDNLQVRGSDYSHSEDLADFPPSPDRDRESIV

| Structure (SMILES) | IC50 (NaV1.6) [µM] | IC50 (NaV1.1) [µM] | IC50 (NaV1.5) [µM] |
| --- | --- | --- | --- |
| CN(c1cc(F)c(S(=O)(=O)Nc2cscn2)cc1Cl)[C@H]1CCN(Cc2cc(Cl)ccc2Cl)C1 [Example 197, (S)-5-chloro-4-((1-(2,5-dichlorobenzyl)pyrrolidin-3-yl)(methyl)amino)-2-fluoro-N-(thiazol-4-yl)benzenesulfonamide] | 3.33 | 5.2 | 3.17 |
| CN(C)c1ccc(CN2CC[C@H](N(C)c3cc(F)c(S(=O)(=O)Nc4cscn4)cc3Cl)C2)cc1 [Example 199, (S)-5-chloro-4-((1-(4-(dimethylamino)benzyl)pyrrolidin-3-yl)(methyl)amino)-2-fluoro-N-(thiazol-4-yl)benzenesulfonamide] | 8.42 | 7.88 | > 30 |
| CN(c1cc(F)c(S(=O)(=O)Nc2cscn2)cc1Cl)[C@H]1CCN(CCOCc2ccccc2)C1 [Example 200, (S)-4-((1-(2-(benzyloxy)ethyl)pyrrolidin-3-yl)(methyl)amino)-5-chloro-2-fluoro-N-(thiazol-4-yl)benzenesulfonamide] | 4.62 | 4.97 | 7.21 |
| Cc1ccc(CN2CC[C@H](N(C)c3cc(F)c(S(=O)(=O)Nc4cscn4)cc3Cl)C2)cc1 [Example 201, (S)-5-chloro-2-fluoro-4-(methyl(1-(4-methylbenzyl)pyrrolidin-3-yl)amino)-N-(thiazol-4-yl)benzenesulfonamide] | 3.32 | 5.74 | 15 |
| CN(c1cc(F)c(S(=O)(=O)Nc2cscn2)cc1Cl)[C@H]1CCN(Cc2ccc[nH]2)C1 [Example 202, (S)-4-((1-((1H-pyrrol-2-yl)methyl)pyrrolidin-3-yl)(methyl)amino)-5-chloro-2-fluoro-N-(thiazol-4-yl)benzenesulfonamide] | 4.32 | 25.1 | > 30 |
| Cc1cccc(C)c1CN1CC[C@H](N(C)c2cc(F)c(S(=O)(=O)Nc3cscn3)cc2Cl)C1 [Example 203, (S)-5-chloro-4-((1-(2,6-dimethylbenzyl)pyrrolidin-3-yl)(methyl)amino)-2-fluoro-N-(thiazol-4-yl)benzenesulfonamide] | 4.15 | 5.74 | 6.7 |
| CN(c1cc(F)c(S(=O)(=O)Nc2cscn2)cc1Cl)[C@H]1CCN(Cc2cccc(F)c2F)C1 [Example 213, (S)-5-chloro-4-((1-(2,3-difluorobenzyl)pyrrolidin-3-yl)(methyl)amino)-2-fluoro-N-(thiazol-4-yl)benzenesulfonamide] | 3.46 | 16.1 | 12.8 |
| CN(c1cc(F)c(S(=O)(=O)Nc2cscn2)cc1Cl)[C@H]1CCN(Cc2cccs2)C1 [Example 215, (S)-5-chloro-2-fluoro-4-(methyl(1-(thiophen-2-ylmethyl)pyrrolidin-3-yl)amino)-N-(thiazol-4-yl)benzenesulfonamide] | 5.2 | 27.5 | > 30 |
| Cc1ccnc(CN2CC[C@H](N(C)c3cc(F)c(S(=O)(=O)Nc4cscn4)cc3Cl)C2)c1 [Example 216, (S)-5-chloro-2-fluoro-4-(methyl(1-((4-methylpyridin-2-yl)methyl)pyrrolidin-3-yl)amino)-N-(thiazol-4-yl)benzenesulfonamide] | 3.71 | > 30 | > 30 |
| CN(c1cc(F)c(S(=O)(=O)Nc2cscn2)cc1Cl)[C@H]1CCN(Cc2ccc(Br)cc2)C1 [Example 217, (S)-4-((1-(4-bromobenzyl)pyrrolidin-3-yl)(methyl)amino)-5-chloro-2-fluoro-N-(thiazol-4-yl)benzenesulfonamide] | 5.64 | 4.57 | 6.7 |
| Cc1c(F)cccc1CN1CC[C@H](N(C)c2cc(F)c(S(=O)(=O)Nc3cscn3)cc2Cl)C1 [Example 220, (S)-5-chloro-2-fluoro-4-((1-(3-fluoro-2-methylbenzyl)pyrrolidin-3-yl)(methyl)amino)-N-(thiazol-4-yl)benzenesulfonamide] | 3.69 | 5.84 | 8.19 |
| Cc1c(OC2CCN(Cc3ccccc3)CC2)cc(F)c(S(=O)(=O)Nc2nccs2)c1F [Example 223, 4-((1-benzylpiperidin-4-yl)oxy)-2,6-difluoro-3-methyl-N-(thiazol-2-yl)benzenesulfonamide 2,2,2-trifluoroacetate] | 0.009 | 2.58 | 23.2 |
| C[C@H](c1ccccc1)N1CCC(Oc2ccc(S(=O)(=O)Nc3cscn3)c(F)c2Cl)CC1 [Example 227, (R)-3-chloro-2-fluoro-4-((1-(1-phenylethyl)piperidin-4-yl)oxy)-N-(thiazol-4-yl)benzenesulfonamide formate] | 0.855 | > 30 | > 30 |
| Cc1cc(S(=O)(=O)Nc2ccon2)c(F)cc1N(C)[C@H]1CCN(Cc2ccccc2)C1 [Example 229, (S)-4-((1-benzylpyrrolidin-3-yl)(methyl)amino)-2-fluoro-N-(isoxazol-3-yl)-5-methylbenzenesulfonamide 2,2,2-trifluoroacetate] | 1.56 | > 30 | > 30 |

Further lines, with some results ahead:

| IC50 (NaV1.6) [µM] | IC50 (NaV1.1) [µM] | Structure (SMILES) | IC50 (NaV1.5) [µM] |
| --- | --- | --- | --- |
| 1.46 | 5.36 | CN(c1cc(F)c(S(=O)(=O)Nc2cscn2)cc1Cl)[C@H]1CCN(Cc2ccccc2Cl)C1 [Example 198, (S)-5-chloro-4-((1-(2-chlorobenzyl)pyrrolidin-3-yl)(methyl)amino)-2-fluoro-N-(thiazol-4-yl)benzenesulfonamide] | 4.7 |
| 1.78 | > 30 | Cc1ccc(CN2CC[C@H](N(C)c3cc(F)c(S(=O)(=O)Nc4cscn4)cc3Cl)C2)o1 [Example 204, (S)-5-chloro-2-fluoro-4-(methyl(1-((5-methylfuran-2-yl)methyl)pyrrolidin-3-yl)amino)-N-(thiazol-4-yl)benzenesulfonamide] | > 30 |
| 1.16 | 10.3 | CN(c1cc(F)c(S(=O)(=O)Nc2cscn2)cc1Cl)[C@H]1CCN(Cc2cccc(Cl)c2F)C1 [Example 205, (S)-5-chloro-4-((1-(3-chloro-2-fluorobenzyl)pyrrolidin-3-yl)(methyl)amino)-2-fluoro-N-(thiazol-4-yl)benzenesulfonamide] | 8 |
| 1.38 | 7.31 | CN(c1cc(F)c(S(=O)(=O)Nc2cscn2)cc1Cl)[C@H]1CCN(Cc2cc(F)ccc2F)C1 [Example 207, (S)-5-chloro-4-((1-(2,5-difluorobenzyl)pyrrolidin-3-yl)(methyl)amino)-2-fluoro-N-(thiazol-4-yl)benzenesulfonamide] | 7.48 |
| 1.09 | 4.41 | CN(c1cc(F)c(S(=O)(=O)Nc2cscn2)cc1Cl)[C@H]1CCN(Cc2cccc(Cl)c2)C1 [Example 208, (S)-5-chloro-4-((1-(3-chlorobenzyl)pyrrolidin-3-yl)(methyl)amino)-2-fluoro-N-(thiazol-4-yl)benzenesulfonamide] | 5.69 |
| 2.15 | 20 | CN(c1cc(F)c(S(=O)(=O)Nc2cscn2)cc1Cl)[C@H]1CCN(Cc2ccccc2O)C1 [Example 209, (S)-5-chloro-2-fluoro-4-((1-(2-hydroxybenzyl)pyrrolidin-3-yl)(methyl)amino)-N-(thiazol-4-yl)benzenesulfonamide] | 20.2 |
| 1.27 | 7.13 | CN(c1cc(F)c(S(=O)(=O)Nc2cscn2)cc1Cl)[C@H]1CCN(Cc2ccccc2OC(F)F)C1 [Example 210, (S)-5-chloro-4-((1-(2-(difluoromethoxy)benzyl)pyrrolidin-3-yl)(methyl)amino)-2-fluoro-N-(thiazol-4-yl)benzenesulfonamide] | 8.36 |
| 2.92 | 4.98 | Cc1cc(CN2CC[C@H](N(C)c3cc(F)c(S(=O)(=O)Nc4cscn4)cc3Cl)C2)ccc1F [Example 211, (S)-5-chloro-2-fluoro-4-((1-(4-fluoro-3-methylbenzyl)pyrrolidin-3-yl)(methyl)amino)-N-(thiazol-4-yl)benzenesulfonamide] | 7.85 |
| 2.14 | 10.5 | CN(c1cc(F)c(S(=O)(=O)Nc2cscn2)cc1Cl)[C@H]1CCN(Cc2cccc(F)c2)C1 [Example 212, (S)-5-chloro-2-fluoro-4-((1-(3-fluorobenzyl)pyrrolidin-3-yl)(methyl)amino)-N-(thiazol-4-yl)benzenesulfonamide] | 18.9 |
| 1.79 | 2.94 | CN(c1cc(F)c(S(=O)(=O)Nc2cscn2)cc1Cl)[C@H]1CCN(Cc2cccc(C(F)(F)F)c2)C1 [Example 214, (S)-5-chloro-2-fluoro-4-(methyl(1-(3-(trifluoromethyl)benzyl)pyrrolidin-3-yl)amino)-N-(thiazol-4-yl)benzenesulfonamide] | 5.54 |
| 2 | 13.7 | CN(c1cc(F)c(S(=O)(=O)Nc2cscn2)cc1Cl)[C@H]1CCN(Cc2ccccc2F)C1 [Example 218, (S)-5-chloro-2-fluoro-4-((1-(2-fluorobenzyl)pyrrolidin-3-yl)(methyl)amino)-N-(thiazol-4-yl)benzenesulfonamide] | 14.2 |
| 0.024 | 8.89 | Cc1c(N(C)[C@H]2CCN(Cc3cccc(C(F)(F)F)n3)C2)cc(F)c(S(=O)(=O)Nc2cscn2)c1F [Example 224, (S)-2,6-difluoro-3-methyl-4-(methyl(1-((6-(trifluoromethyl)pyridin-2-yl)methyl)pyrrolidin-3-yl)amino)-N-(thiazol-4-yl)benzenesulfonamide 2,2,2-trifluoroacetate] | > 30 |
| 0.967 | 13.1 | CN(c1cc(F)c(S(=O)(=O)Nc2cscn2)cc1Br)[C@H]1CCN(Cc2ccccc2)C1 [Example 230, (S)-4-((1-benzylpyrrolidin-3-yl)(methyl)amino)-5-bromo-2-fluoro-N-(thiazol-4-yl)benzenesulfonamide 2,2,2-trifluoroacetate] | 23 |
